Reference: patent US20170202792A1, “METHOD FOR TREATING TAU-ASSOCIATED DISEASES” (NATIONAL TAIWAN NORMAL UNIVERSITY, priority 2016, published 2017)

Key:
[1] = system: Aβ40, Aβ42; test: Immunohistochemical staining of Aβ in brain tissue; format: in vivo, mouse; details: 0.25 mg/kg i.p. daily 28 days
Description: (§1) Hyperglycemia was induced by streptozotocin (STZ) to accelerated Alzheimer's disease progression of 6-month-old male transgenic 3×Tg−AD mice. Half of the 3×Tg−AD mice (n=30) received STZ (100 mg/kg) intraperitoneal injection at days 1, 2, 8, and 9 respectively as the high blood glucose group (HBG); another half of the 3×Tg-AD mice (n=30) received sodium citrate (0.1 M) at the same time points as the normal blood glucose group (NBG). Then, HBG and NBG were divided into two groups respectively to give four groups such as NBG-compound (I), HBG-compound (I), NBG-DMSO, and HBG-DMSO with n=15 in each group; wherein 0.25 mg/kg of compound (I) (in 30 μL) were intraperitoneal injected into those mice of NBG-compound (I) and HBG-compound (I) groups daily since day 14 for 28 days, and 30 μL of DMSO solvent were intraperitoneal injected into those mice of NBG-DMSO and HBG-DMSO groups daily since day 14 for 28 days. Both mouse body weight (BW) and blood glucose (BG) were monitored every week.
(§2) After the brain tissue of the mice was fixed and dehydrated, the tissue was cryosectioned (30 μm). The cryosections were then washed with phosphate buffered saline (PBS) for three times. After the optimal cutting temperature compound (OCT) was removed, 3% H2O2 was used to remove the endogenous peroxidase, and the cryosections were blocked by the blocking solution for 1 hour to reduce the non-specific antigen reactions. The primary antibodies (Aβ40, Aβ42) were added and reacted for 12 hours, the secondary antibody (1:200 dilution in blocking solution, Vecter) was added and reacted for 1 hour, and then, the avidin-biotin complex was added and reacted for 1 hour. Finally, DAB-kit was used for coloring. All the stained sections were attached to the slides, dried, dehydrated, and mounted for imaging and quantification (Image Pro Plus). The quantification results were shown in Table 1, wherein ↑, ↓:p<0.05; ↑↑, ↓↓:p<0.01.

[2] = system: SH-SY5Y tauRD-DsRed cells; test: Neurite outgrowth in SH-SY5Y tauRD-DsRed cells (TUBB3 staining); format: cell-based, human; details: 10 μM, pre-treated 8 hours, doxycycline 7 days; untreated = 100%
Description: We used SH-SY5Y human cells expressing a DsRed-tagged proaggregation mutant (ΔK280) of the C-terminal repeat domain of tau (tauRD-Gln^244-Glu^372 of the longest tau^441 isoform). The recombinant tauRD-DsRed construct was under the control of a tetracycline-regulated, hybrid human cytomegalovirus (CMV)/TetO2 promoter that can be induced by adding doxycycline. The cell lines were grown in medium containing blasticidin (5 μg/mL) and hygromycin (100 μg/mL).
SH-SY5Y tauRD-DsRed cells were seeded in 6-well plates (1×10^5/well) in a medium containing all-trans retinoic acid (10 μM, Sigma). After 48 hours of incubation, cells were pre-treated with 10 μM Congo red and 10 μM compound (I) for 8 hours; after which, tauRD-DsRed expression was induced with 1μg/mL doxycycline for 7 days. The cells were then fixed in 4% paraformaldehyde, permeabilized with 0.1% Triton X-100, blocked in 3% BSA, and then stained with the primary antibody anti-TUBB3 (against neuronal Class III β-tubulin) (1:1000; Covance) and with a secondary anti-rabbit Alexa Fluor® 555 antibody (1:500; Molecular Probes). Nuclei were counterstained with 4′,6-diamidino-2-phenylindole (DAPI). The total outgrowth in the untreated, Congo red-treated, and compound (I)-treated cells was assessed using MetaXpress image acquisition and analysis software.

[3] = system: GFAP (astrocytes) and Iba1 (microglia); test: Immunohistochemical staining of GFAP and Iba1 (neuro-inflammation in hippocampus); format: in vivo, mouse; details: 0.25 mg/kg i.p. daily 28 days
Description: as §1
After the brain tissue of the mice were fixed and dehydrated, the tissue was cryosectioned (30 μm). The cryosections were then washed with phosphate buffered saline (PBS) three times. After the optimal cutting temperature compound (OCT) was removed, 3% H2O2was used to remove the endogenous peroxidase, and the cryosection was blocked by the blocking solution for 1 hour to reduce non-specific antigen reactions. The primary antibodies GFAP (astrocytes) and Iba1 (microglia) were added and reacted for 12 hours, the secondary antibody (1:200 dilution in blocking solution, Vecter) was added and reacted for 1 hour, and then, the avidin-biotin complex was added and reacted for 1 hour. Finally, DAB-kit was used for coloring. All the stained sections were attached to the slides, dried, dehydrated, and mounted for imaging and quantification (Image Pro Plus) to evaluate the neuro-inflammation in mouse hippocampus. The quantification results were shown in Table 2, wherein ↑↑↑, ↓↓↓:p<0.001.

[4] = system: cholinergic, serotonergic and noradrenergic neurons; test: Immunohistochemical staining in brain region (ChAT, TH, 5HT neurons); format: in vivo, mouse; details: for 5HT (serotonergic neurons in the Raphe nucleus) quantification / TH (noradrenergic neurons in the LC region) quantification: 0.25 mg/kg i.p. daily 28 days
Description: as §1
Neurons including the cholinergic neurons in the medial septum (MS), vertical diagonal band of Broca (VDB), and horizontal diagonal band of Broca (HDB) regions; the serotonergic neurons in the Raphe nucleus; and the noradrenergic neurons in the locus coeruleus (LC) region, which are related to cognition in the other brain regions were examined.
as §2, with “mice were” for “mice was”, “3% H2O2was” for “3% H2O2 was”, “reduce” for “reduce the”, “antibodies (ChAT, TH, 5HT)” for “antibodies (Aβ40, Aβ42)”, “Plus).” for “Plus). The quantification results were shown in Table 1, wherein ↑, ↓:p<0.05; ↑↑, ↓↓:p<0.01.”

[5] = HBG (high blood glucose, STZ) 3×Tg-AD mice
[6] = NBG (normal blood glucose) 3×Tg-AD mice

## CCCCC/C=C\C/C=C\C/C=C\C/C=C\CCCC(=O)Nc1ccc(O)cc1 [compound (I), (5Z, 8Z, 11Z,14Z)-N-(4-Hydroxyphenyl)icosa-5 ,8 , 11,14-tetraen amide]
[1]; [5]
  Aβ40 staining quantification: 164.78 ± 9.51↓↓
  Aβ42 staining quantification: 26.91 ± 1.28↓
[1]; [6]
  Aβ40 staining quantification: 181.88 ± 4.17
  Aβ42 staining quantification: 29.13 ± 0.64
[2]
  neurite growth relative to untreated cells: 140%
[3]; HBG 3×Tg-AD mice
  GFAP staining quantification: 15.63 ± 2.05↓↓↓
  Iba1 staining quantification: 29.43 ± 0.78↓↓↓
[3]; NBG 3×Tg-AD mice
  GFAP staining quantification: 3.33 ± 1.02
  Iba1 staining quantification: 34.25 ± 2.19
[4]; HBG 3×Tg-AD mice
  5HT (serotonergic neurons in the Raphe nucleus) quantification: 33.00 ± 1.78↑↑↑
  TH (noradrenergic neurons in the LC region) quantification: 56.89 ± 4.45↓
[4]; NBG 3×Tg-AD mice
  5HT (serotonergic neurons in the Raphe nucleus) quantification: 31.80 ± 2.04
  TH (noradrenergic neurons in the LC region) quantification: 75.75 ± 3.12
[4]; data not shown, among groups
  cholinergic neurons (ChAT; MS, VDB, HDB regions): no difference was identified
